Results on 2 compounds are retold here after paper PMC2708596 (Toxicological Sciences, 2009).

Where two headings read alike, the source gives them in different places.

For data set [1] the following is noted: Male rat, Kidney, ref Punt et al. (2008), cited from earlier work.
A short description of data set [2]: PBBK model for estragole in human. The conditions noted are these: 0.001 mg/kg bw, after 8 h, compared with Sangster et al., 1987.
A short description of data set [3]: Phase I metabolism of estragole by human liver microsomes. In kind it is in vitro ADME. A general note: Liver microsomes are vesicles of endoplasmic reticulum, rich in cytochrome P450 enzymes.
For data set [4] the following is noted: Male rat, Lung, ref Punt et al. (2008), cited from earlier work.
The conditions of data set [5]: Male rat, Liver; estragole metabolites; ref Punt et al. (2008); cited from earlier work.
For data set [6] the following is noted: rats, 0.05 mg/kg bw; ref Anthony et al., 1987; cited from earlier work.
For data set [7] the following is noted: humans, ref Sangster et al., 1987, cited from earlier work.

By Km is commonly meant the concentration of substrate that gives half-maximal velocity. On to `C=CCc1ccc(O)cc1` [4-allylphenol], for which the “Scaled Vmax (app)” value in data set [1] (microsomal protein yield 7 mg/g) is listed as 0.2 μmol h^−1 (g tissue)^−1; in data set [3] (Human, Liver, estragole metabolites, microsomal protein yield 32 mg/g) it was 0.7 μmol h^−1 (g tissue)^−1; in data set [4] (microsomal protein yield 20 mg/g), 0.8 μmol h^−1 (g tissue)^−1; in data set [5], 1.6 μmol h^−1 (g tissue)^−1. In addition, the Catalytic efficiency is 400 ml h^−1 (g liver)^−1 in data set [1]; 2 ml h^−1 (g liver)^−1 in data set [3] (Human, Liver, estragole metabolites, scaled Vmax (app)/Km(app)); 1600 ml h^−1 (g liver)^−1 in data set [4]; 3 ml h^−1 (g liver)^−1 in data set [5]. In addition, the Michaelis constant (Km) in data set [1] (read-out: Km (app)) and in data set [4] (read-out: Km (app)) was 0.5 µM throughout. In addition, the “predicted formation compared with the reported in vivo level” value in data set [2] is given as “fourfold lower”. Further, the “In vitro catalytic efficiency” value in data set [3] (Vmax (app)/Km(app) × 1000 μl/ml) is 1.3 μl min^−1 (mg microsomal protein)^−1.

In the case of `C=CCc1ccc(OC)cc1` [estragole, 4-allylanisol], in data set [6], the “oral dose accounted for by O-demethylation” value is listed as 53 % of the oral dose. The “dose excreted as 14CO2 (level of O-demethylation)” value in data set [7] (0.001 mg/kg bw, after 8 h) is listed as ~10 % of the dose. Moreover, the “radioactivity excreted in the urine” value is recorded as 31–37 % of the dose in data set [7] (0.001 mg/kg bw, after 8 h); 47–53 % of the dose in data set [7] (0.001 mg/kg bw, after 24 h); 54–62 % of the dose in data set [7] (0.001 mg/kg bw, after 48 h). Moreover, in data set [7] (within 48 h), the radioactivity not recovered is roughly 30%.
